From patent publication US8785457B2 (Cellzome Limited, priority 2009, dated 2014)
Read-outs that look alike come from different tables or passages of the source.

Columns and labels:
PI3K delta (PI3 Kd) = molecular target: T1, PI3K delta (PI3 Kd) (Homo sapiens, UniProt O00329); test: kinobeads assay, PI3K delta; format: binding; details: kinobeads assay, read-out: Inhibition values (IC50) PI3Kd
T1 construct: endogenous in cells; host or cells: Jurkat, clone E6-1 (ATCC TIB-152) cell lysate
Method in brief: (§1)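 Competitive binding in Jurkat cell lysate (5 mg/ml total protein): test compounds at various concentrations competed with beads bearing immobilized phenylmorpholin-chromen ligand. Bead-bound kinases were eluted and quantified by antibody dot blot with infrared detection; IC50 values came from dose-response curves.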

[1] = molecular target: T2, DNA-dependent protein kinase (DNA-PK) (Homo sapiens, UniProt P78527); test: kinobeads assay, DNA-PK; format: binding; details: kinobeads assay
T2 construct: endogenous in cells; host or cells: Jurkat, clone E6-1 (ATCC TIB-152) cell lysate
Method in brief: as §1

PI3Kalpha (PI3Ka) = molecular target: T3, PI3Kalpha (PI3Ka) (Homo sapiens, UniProt P42336); test: kinobeads assay, PI3Kalpha; format: binding; details: kinobeads assay, Table 6; for IC50: read-out: Inhibition values (IC50) PI3Ka
T3 construct: endogenous in cells; host or cells: cell lysate
Method in brief: (§2)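 Competitive pull-down in cell lysate: compound (various conc.) + phenylmorpholin-chromen affinity beads, incubate, separate beads, elute. Multiplexed immunodetection of bound kinases; dose-response fit → IC50.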

PI3 Kgamma (PI3 Kg) = molecular target: T4, PI3 Kgamma (PI3 Kg) (Homo sapiens, UniProt P48736); test: kinobeads assay, PI3Kgamma; format: binding; details: kinobeads assay, Table 6; read-out: Inhibition values (IC50) PI3Kg
T4 construct: endogenous in cells; host or cells: cell lysate
Method in brief: as §2

PI3 Kbeta (PI3 Kb) = molecular target: T5, PI3 Kbeta (PI3 Kb) (Homo sapiens, UniProt P42338); test: kinobeads assay, PI3Kbeta; format: binding; details: kinobeads assay, Table 6; read-out: Inhibition values (IC50) PI3Kb
T5 construct: endogenous in cells; host or cells: cell lysate
Method in brief: as §2

[2] = tested on: S6RP serine-240/244 phosphorylation; test: In vitro Phospho-S6 cellular assay (pS6RP S240/244) in HEK293T/17 cells; format: cell-based; details: Homo sapiens, 2 hours, read-out: pS6 IC50
Source text: Activation of mTOR signaling results in phosphorylation of several downstream targets. In cells, mTOR exists in two different protein complexes. The mTOR Complex-1 (mTORC1) phosphorylates and activates S6 Kinase 1 (S6K1) and S6 Kinase 2 (S6K2) (also known as p70S6K) which then phosphorylate S6 Ribosomal Protein (S6RP) (also known as RPS6)3. S6RP is phosphorylated on serine 235, serine 236, serine 240 and serine 244 by both pS6K1 and pS6K2. The mTOR Complex-2 (mTORC2) phosphorylates AKT on serine 473 which activates the AKT signaling pathway.
The assay measures a test compound's inhibition of S6RP serine-240/244 phosphorylation and inhibition of Akt serine-473 phosphorylation in human embryonic kidney derived HEK293T/17 cells (ATCC CRL-11268).
The HEK293T/17 cell line is maintained in DMEM media (Invitrogen catalogue number 41965-039) supplemented with 10% FCS at 37° C. in a 5% CO2 humidified incubator.
Cells are seeded in 96-well plates at 40,000 cells/well (pS6RP S240/244 assay) or 80,000 cells/well (pAkt S473 assay) in 90 μl growth media (DMEM, 2% FCS). Plates are incubated for 1 hour in a humidified incubator to allow the cells to adhere. Cells are treated with 8 concentrations of test compounds or DMSO alone for controls (final DMSO concentration 0.1%) and incubated at 37° C. for 2 hours. Then 20 μl of 5× concentrated lysis buffer (750 mM NaCl, 100 mM Tris pH7.4, 5 mM ADTA, 5 mM EGTA, 5% Triton X-100) is added, plates are sealed and incubated for 15 minutes at 4° C. with gentle shaking. After cell lysis, 25 μl cell lysate is transferred to a MesoScale plate coated with an antibody to pS6RP Ser240/244 (MesoScale Discovery K150DGD-3) or an antibody to pAkt Ser 473 (MesoScale Discovery K151DGD-3). Plates have been blocked before by incubation with 150 μl MesoScale Discovery Blocking Solution-A for 1 hour at room temperature followed by washing with 150 μl 1× Tris wash buffer per well. After the transfer of the cell lysate to the MSD plate, the pS6RP (or pAkt) protein is captured on the coated antibody by incubation at room temperature for 1 hour with gentle shaking. After the capture step the plate is washed three times with 150 μl of 1× Tris wash buffer per well. Then 25 μl detection antibody conjugated with a Sulfo-Tag is added and incubated for 1 hour at room temperature with gentle shaking. Subsequently the antibody solution is removed and the plate is washed 3 times with 150 μl×Tris wash buffer per well and 150 μl Read buffer is added. The plates are analysed on a MSD 2400 Plate Reader (MesoScale Discovery). Data analysis is performed using nonlinear regression for a sigmoidal dose-response with a variable slope.

mTOR = molecular target: T6, mTOR (Homo sapiens, UniProt P42345); test: mTOR kinobeads assay (competitive binding in Jurkat cell lysate, immunodetection); details: kinobeads assay, Table 6; read-out: Inhibition values (IC50) mTOR
T6 construct: endogenous in cells; host or cells: Jurkat, clone E6-1 (ATCC TIB-152) cell lysate
Method in brief: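 IC50 derived from dose-response curves of mTOR captured on immobilized phenylmorpholin-chromen beads, detected by antibody dot blot with infrared fluorescence.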

[3] = Table 6, read-out: Inhibition values (IC50) DNAPK

T4 sequence (P48736 whole entry): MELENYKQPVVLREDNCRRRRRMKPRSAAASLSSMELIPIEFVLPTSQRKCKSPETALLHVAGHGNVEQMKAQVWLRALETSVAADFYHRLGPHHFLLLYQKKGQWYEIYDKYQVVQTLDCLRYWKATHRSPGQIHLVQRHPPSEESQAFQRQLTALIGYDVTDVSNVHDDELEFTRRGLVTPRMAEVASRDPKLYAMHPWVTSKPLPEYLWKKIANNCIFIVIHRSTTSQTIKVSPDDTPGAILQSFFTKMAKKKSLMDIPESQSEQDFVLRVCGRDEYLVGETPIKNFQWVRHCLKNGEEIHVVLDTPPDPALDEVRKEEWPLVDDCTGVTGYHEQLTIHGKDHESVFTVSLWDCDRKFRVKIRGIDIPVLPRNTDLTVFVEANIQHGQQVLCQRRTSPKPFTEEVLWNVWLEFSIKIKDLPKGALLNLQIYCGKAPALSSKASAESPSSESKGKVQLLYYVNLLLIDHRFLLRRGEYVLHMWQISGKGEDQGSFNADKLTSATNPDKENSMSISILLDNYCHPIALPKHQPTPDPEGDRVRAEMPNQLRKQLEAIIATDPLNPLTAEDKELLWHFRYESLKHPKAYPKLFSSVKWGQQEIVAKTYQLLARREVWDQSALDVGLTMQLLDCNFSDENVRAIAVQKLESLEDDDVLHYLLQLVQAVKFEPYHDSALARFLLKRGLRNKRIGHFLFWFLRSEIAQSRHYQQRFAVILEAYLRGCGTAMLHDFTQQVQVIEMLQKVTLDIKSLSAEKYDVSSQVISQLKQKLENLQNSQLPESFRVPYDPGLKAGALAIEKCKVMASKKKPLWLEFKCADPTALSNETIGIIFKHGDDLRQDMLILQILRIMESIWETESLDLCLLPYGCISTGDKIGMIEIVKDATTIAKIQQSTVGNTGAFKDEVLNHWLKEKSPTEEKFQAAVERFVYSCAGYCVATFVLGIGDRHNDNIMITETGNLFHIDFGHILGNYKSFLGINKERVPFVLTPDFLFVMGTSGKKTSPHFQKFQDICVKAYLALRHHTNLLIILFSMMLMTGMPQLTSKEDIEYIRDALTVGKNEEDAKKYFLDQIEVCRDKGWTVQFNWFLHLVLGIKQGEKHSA
T1 sequence (O00329 whole entry): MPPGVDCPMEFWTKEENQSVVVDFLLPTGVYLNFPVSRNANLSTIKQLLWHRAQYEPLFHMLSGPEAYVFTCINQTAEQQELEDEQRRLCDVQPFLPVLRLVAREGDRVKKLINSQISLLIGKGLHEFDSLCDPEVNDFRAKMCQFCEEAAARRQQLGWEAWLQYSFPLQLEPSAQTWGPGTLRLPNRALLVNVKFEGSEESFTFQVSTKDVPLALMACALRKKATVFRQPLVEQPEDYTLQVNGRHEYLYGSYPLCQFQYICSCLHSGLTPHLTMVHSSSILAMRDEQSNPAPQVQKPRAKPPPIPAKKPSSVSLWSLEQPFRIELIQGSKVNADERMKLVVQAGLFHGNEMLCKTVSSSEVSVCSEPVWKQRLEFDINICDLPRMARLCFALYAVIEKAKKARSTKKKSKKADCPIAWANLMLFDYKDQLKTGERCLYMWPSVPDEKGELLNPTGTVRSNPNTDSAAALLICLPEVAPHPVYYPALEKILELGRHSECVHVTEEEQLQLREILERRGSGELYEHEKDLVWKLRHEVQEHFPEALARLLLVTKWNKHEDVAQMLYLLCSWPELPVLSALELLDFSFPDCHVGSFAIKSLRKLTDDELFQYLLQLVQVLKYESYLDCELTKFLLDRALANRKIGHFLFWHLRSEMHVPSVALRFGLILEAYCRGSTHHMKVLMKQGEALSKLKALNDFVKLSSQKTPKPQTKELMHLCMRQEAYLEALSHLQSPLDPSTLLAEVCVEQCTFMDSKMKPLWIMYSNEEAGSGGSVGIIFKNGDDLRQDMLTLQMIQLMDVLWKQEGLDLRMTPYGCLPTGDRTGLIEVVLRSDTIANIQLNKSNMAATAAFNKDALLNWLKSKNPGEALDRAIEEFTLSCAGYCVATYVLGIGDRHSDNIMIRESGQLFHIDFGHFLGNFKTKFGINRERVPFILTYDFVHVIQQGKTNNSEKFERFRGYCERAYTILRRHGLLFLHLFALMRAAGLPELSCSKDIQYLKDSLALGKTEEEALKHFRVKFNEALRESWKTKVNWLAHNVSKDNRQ
T1 sequence (P27986 whole entry partner): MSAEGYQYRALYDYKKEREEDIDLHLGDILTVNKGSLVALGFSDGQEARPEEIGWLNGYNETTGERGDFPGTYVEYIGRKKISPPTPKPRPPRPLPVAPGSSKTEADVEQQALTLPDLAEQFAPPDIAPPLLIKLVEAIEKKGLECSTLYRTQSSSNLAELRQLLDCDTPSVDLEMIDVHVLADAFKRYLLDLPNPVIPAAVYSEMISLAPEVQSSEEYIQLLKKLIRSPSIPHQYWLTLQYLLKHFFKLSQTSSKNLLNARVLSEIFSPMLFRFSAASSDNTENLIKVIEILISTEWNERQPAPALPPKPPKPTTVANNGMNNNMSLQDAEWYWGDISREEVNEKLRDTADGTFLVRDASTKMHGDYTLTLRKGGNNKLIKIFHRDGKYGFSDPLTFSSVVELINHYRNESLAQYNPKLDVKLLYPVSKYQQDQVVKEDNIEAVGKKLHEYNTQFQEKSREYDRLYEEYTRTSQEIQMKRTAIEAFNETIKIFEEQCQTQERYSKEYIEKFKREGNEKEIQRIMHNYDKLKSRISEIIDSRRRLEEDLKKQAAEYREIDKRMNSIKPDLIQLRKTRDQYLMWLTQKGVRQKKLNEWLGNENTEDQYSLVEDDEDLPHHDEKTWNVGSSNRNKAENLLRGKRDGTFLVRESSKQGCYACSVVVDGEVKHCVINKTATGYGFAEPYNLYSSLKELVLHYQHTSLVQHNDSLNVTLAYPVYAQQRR
T5 sequence (P42338 whole entry): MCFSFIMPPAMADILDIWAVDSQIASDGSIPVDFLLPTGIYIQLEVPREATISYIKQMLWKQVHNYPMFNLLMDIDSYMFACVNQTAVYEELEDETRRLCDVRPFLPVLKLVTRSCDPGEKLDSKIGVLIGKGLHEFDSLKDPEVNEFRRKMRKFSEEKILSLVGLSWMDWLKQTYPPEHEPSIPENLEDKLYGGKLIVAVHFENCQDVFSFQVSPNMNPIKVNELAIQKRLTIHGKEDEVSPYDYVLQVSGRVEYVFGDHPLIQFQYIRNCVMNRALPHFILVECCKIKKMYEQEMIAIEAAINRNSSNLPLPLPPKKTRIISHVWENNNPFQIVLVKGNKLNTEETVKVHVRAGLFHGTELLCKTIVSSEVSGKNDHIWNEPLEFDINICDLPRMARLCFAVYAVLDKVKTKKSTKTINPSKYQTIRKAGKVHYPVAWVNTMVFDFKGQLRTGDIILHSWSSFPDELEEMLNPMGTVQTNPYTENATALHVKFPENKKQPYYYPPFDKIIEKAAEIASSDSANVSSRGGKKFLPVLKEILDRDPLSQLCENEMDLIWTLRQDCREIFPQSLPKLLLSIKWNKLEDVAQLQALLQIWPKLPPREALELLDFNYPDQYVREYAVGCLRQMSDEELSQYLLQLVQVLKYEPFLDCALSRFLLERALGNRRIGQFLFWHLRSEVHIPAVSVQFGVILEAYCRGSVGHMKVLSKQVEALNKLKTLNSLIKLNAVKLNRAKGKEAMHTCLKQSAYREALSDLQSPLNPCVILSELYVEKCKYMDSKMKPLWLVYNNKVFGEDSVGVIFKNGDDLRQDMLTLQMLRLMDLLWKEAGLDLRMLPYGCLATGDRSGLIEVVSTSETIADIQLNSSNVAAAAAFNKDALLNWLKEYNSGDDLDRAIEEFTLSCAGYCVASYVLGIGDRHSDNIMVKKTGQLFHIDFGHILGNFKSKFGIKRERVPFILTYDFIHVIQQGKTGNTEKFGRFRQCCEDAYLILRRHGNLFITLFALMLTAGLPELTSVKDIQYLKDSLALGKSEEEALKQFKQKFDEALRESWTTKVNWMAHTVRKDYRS
T5 sequence (P27986 whole entry partner): as the sequence (P27986 whole entry partner) above
T3 sequence (P42336 whole entry): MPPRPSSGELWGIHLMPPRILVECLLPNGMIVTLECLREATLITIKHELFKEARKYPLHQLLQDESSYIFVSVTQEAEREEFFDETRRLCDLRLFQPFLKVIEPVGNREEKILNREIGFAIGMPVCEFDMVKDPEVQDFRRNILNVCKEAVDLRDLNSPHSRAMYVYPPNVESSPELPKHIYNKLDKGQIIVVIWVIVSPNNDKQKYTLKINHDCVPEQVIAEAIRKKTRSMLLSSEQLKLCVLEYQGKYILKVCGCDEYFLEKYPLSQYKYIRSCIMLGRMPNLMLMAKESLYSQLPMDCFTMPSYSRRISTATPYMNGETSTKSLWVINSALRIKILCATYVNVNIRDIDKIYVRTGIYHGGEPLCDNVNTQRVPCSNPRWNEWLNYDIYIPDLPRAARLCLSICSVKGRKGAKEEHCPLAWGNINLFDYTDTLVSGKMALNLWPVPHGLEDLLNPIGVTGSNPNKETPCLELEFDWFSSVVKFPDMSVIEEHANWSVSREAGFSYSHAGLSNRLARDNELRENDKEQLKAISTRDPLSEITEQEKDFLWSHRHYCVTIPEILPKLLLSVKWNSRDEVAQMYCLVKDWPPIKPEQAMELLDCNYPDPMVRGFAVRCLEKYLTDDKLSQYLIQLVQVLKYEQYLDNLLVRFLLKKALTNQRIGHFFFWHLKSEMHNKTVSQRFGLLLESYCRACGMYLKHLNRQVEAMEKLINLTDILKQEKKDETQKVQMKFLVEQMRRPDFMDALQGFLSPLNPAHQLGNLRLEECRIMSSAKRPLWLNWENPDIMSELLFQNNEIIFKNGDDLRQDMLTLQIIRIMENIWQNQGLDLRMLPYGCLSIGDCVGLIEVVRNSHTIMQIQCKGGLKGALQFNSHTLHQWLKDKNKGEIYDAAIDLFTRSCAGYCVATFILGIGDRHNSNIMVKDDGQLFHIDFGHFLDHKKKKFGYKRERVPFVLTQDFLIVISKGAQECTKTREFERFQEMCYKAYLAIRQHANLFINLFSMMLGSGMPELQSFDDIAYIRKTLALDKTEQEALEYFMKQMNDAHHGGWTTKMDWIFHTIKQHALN
T3 sequence (P27986 whole entry partner): as the sequence (P27986 whole entry partner) above

Structure (SMILES): CCNC(=O)Nc1ccc(-c2nc3c(c(N4CCOCC4)n2)CN(C(=O)NCC)C3)cc1 [Example 79, N-ethyl-2-(4-(3-ethylureido)phenyl)-4-morpholino-5H-pyrrolo[3,4-d]pyrimidine-6(7H)-carboxamide]
- IC50 (PI3K delta (PI3 Kd); Table 6): 1 to 10 µM
- IC50 [1, 3]: 1 to 10 µM
- IC50 (PI3Kalpha (PI3Ka)): 1 to 10 µM
- IC50 (PI3 Kgamma (PI3 Kg)): > 10 µM
- IC50 (PI3 Kbeta (PI3 Kb)): > 10 µM
- IC50 [2]: 0.589 µM

Structure (SMILES): CCNC(=O)Nc1ccc(-c2nc3c(c(N4CCOC[C@@H]4C)n2)CN(C(=O)OC(C)(C)C)CC3)cc1 [Example 2, (S)-tert-butyl 2-(4-(3-ethylureido)phenyl)-4-(3-methylmorpholino)-7,8-dihydropyrido[4,3-d]pyrimidine-6(5H)-carboxylate]
- IC50 (PI3K delta (PI3 Kd); Table 4): > 10 µM
- IC50 (PI3K delta (PI3 Kd); Table 6): > 10 µM
- IC50 ([1]; Table 4, read-out: Inhibition values (IC50) DNA-PK): > 10 µM
- IC50 [1, 3]: > 10 µM
- IC50 [2]: 0.122 µM

Structure (SMILES): CCNC(=O)Nc1ccc(-c2nc3c(c(N4CCOCC4)n2)CCNC3)cc1 [Example 82, 1-ethyl-3-(4-(4-morpholino-5,6,7,8-tetrahydropyrido[3,4-d]pyrimidin-2-yl)phenyl)urea]
- IC50 (PI3K delta (PI3 Kd); Table 6): > 10 µM
- IC50 [1, 3]: > 10 µM
- Inhibition values (IC50) PI3Ka (PI3Kalpha (PI3Ka)): D (D >10 μM)
- IC50 (PI3 Kgamma (PI3 Kg)): > 10 µM
- IC50 (PI3 Kbeta (PI3 Kb)): > 10 µM
- IC50 [2]: 0.991 µM

Structure (SMILES): CC(=O)N(C)CCC(=O)N1Cc2nc(-c3ccc(NC(=O)NC4CC4)cc3)nc(N3CCOC[C@@H]3C)c2C1 [Example 135, (S)—N-(3-(2-(4-(3-cyclopropylureido)phenyl)-4-(3-methylmorpholino)-5H-pyrrolo[3,4-d]pyrimidin-6(7H)-yl)-3-oxopropyl)-N-methylacetamide]
- IC50 (PI3K delta (PI3 Kd); Table 6): 1 to 10 µM
- IC50 [1, 3]: > 10 µM
- IC50 (PI3Kalpha (PI3Ka)): 1 to 10 µM
- IC50 (mTOR): < 0.1 µM
- IC50 (PI3 Kgamma (PI3 Kg)): > 10 µM
- IC50 (PI3 Kbeta (PI3 Kb)): 1 to 10 µM
